The results in this text go back to patent US12612407B2, “Imidazo[2,1-f][1,2,4]triazin-4-amine derivatives as TLR7 agonist” (BEIGENE, LTD., priority 2020, dated 2026).

The test addresses T1, human TLR7 (Homo sapiens, UniProt Q9NYK1).
T1 construct: host or cells: HEK293 (HEK-Blue hTLR7)
T1 sequence (Q9NYK1 27-1049): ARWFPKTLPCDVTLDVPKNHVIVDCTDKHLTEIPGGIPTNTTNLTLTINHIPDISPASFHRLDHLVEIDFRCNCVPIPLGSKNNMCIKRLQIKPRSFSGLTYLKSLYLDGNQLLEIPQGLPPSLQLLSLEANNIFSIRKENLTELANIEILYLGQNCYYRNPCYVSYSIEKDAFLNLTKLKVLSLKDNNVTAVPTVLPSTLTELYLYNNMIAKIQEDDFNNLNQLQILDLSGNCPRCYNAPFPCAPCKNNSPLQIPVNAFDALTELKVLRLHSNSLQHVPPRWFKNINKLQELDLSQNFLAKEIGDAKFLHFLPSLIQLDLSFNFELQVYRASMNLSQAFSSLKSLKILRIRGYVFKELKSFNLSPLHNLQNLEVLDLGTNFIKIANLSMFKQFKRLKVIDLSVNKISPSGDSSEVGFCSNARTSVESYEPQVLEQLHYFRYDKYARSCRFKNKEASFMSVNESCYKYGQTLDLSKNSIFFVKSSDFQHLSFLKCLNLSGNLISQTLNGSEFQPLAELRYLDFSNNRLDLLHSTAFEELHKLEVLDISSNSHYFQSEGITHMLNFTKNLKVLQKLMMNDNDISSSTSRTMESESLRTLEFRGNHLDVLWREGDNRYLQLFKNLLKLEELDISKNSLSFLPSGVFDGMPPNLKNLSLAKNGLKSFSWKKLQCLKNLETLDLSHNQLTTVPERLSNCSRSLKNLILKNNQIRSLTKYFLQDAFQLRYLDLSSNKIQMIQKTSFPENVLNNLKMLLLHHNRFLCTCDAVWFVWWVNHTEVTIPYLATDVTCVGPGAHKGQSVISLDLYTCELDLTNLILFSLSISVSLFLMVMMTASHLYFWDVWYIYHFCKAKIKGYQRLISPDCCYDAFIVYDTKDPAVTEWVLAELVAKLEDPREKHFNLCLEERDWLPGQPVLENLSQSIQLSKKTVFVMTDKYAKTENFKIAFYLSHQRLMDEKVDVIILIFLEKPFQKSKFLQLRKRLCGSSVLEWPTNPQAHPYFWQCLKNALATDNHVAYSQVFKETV
The test can be described thus: HEK293-Blue hTLR7 Reporter Assay (QUANTI-BLUE, SEAP readout). The test is classed as cell-based. As to conditions: HEK-Blue-hTLR7 cells, 24 hrs treatment, Table 1, B1-B232. An outline of the steps:
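Compound titrations were applied for 24 h at 37° C to reporter HEK293 cells (4×10^4 per well) in which human TLR7 activation drives secreted alkaline phosphatase. Supernatants reacted with Quanti-blue 10-30 min, absorbance read at 620-655 nm, and EC50 derived by sigmoidal curve fitting.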

In turn, `CCCCOc1nc(N)c2ncc(Cc3cnc(N4CCN(CCNC)CC4)c(C)c3)n2n1` [Compound B75, 2-butoxy-7-((5-methyl-6-(4-(2-(methylamino)ethyl)piperazin-1-yl)pyridin-3-yl)methyl)imidazo[2,1-f][1,2,4]triazin-4-amine] gave a half-maximal effective concentration (EC50) of 121 nM. Regarding `CCCCOc1nc(N)c2ncc(Cc3cnc(N4CCN(C(=O)C5CNCCN5)CC4)c(C)c3)n2n1` (stereo not shown) [Compound B41, (4-(5-((4-amino-2-butoxyimidazo[2,1-f][1,2,4]triazin-7-yl)methyl)-3-methylpyridin-2-yl)piperazin-1-yl)(piperazin-2-yl)methanone], the EC50 came to 600 nM. For `CC[C@@H](CCO)Oc1nc(N)c2ncc(Cc3cnc(N4CCNCC4)c(C)c3)n2n1` [Compound B216, (S)-3-((4-amino-7-((5-methyl-6-(piperazin-1-yl)pyridin-3-yl)methyl)imidazo[2,1-f][1,2,4]triazin-2-yl)oxy)pentan-1-ol] the value was 1080 nM; for `CCCCOc1nc(N)c2ncc(Cc3cnc(N4CCC5(CCNC5)CC4)c(C)c3)n2n1` [Compound B82, 2-butoxy-7-((5-methyl-6-(2,8-diazaspiro[4.5]decan-8-yl)pyridin-3-yl)methyl)imidazo[2,1-f][1,2,4]triazin-4-amine], 431 nM.

With `CCCCNc1nc(N)c2ncc(Cc3cnc(N4CCC(CN(C)C)CC4)c(C)c3)n2n1` [Compound B96, N2-butyl-7-((6-(4-((dimethylamino)methyl)piperidin-1-yl)-5-methylpyridin-3-yl)methyl)imidazo[2,1-f][1,2,4]triazine-2,4-diamine], the midpoint of the response, the EC50, lay at 17 nM. Molecule `CCCC(CCC)Oc1nc(N)c2ncc(Cc3cnc(N4CCN(C(=O)CNC)CC4)c(C)c3)n2n1` [Compound B197, 1-(4-(5-((4-amino-2-(heptan-4-yloxy)imidazo[2,1-f][1,2,4]triazin-7-yl)methyl)-3-methylpyridin-2-yl)piperazin-1-yl)-2-(methylamino)ethan-1-one] came in with an EC50 of 3.9 nM.

Molecule `CCCCOc1nc(N)c2ncc(Cc3cnc(N4CC(N)C4)c(C)c3)n2n1` [Compound B136, 7-((6-(3-aminoazetidin-1-yl)-5-methylpyridin-3-yl)methyl)-2-butoxyimidazo[2,1-f][1,2,4]triazin-4-amine] came in with an EC50 of 4980 nM. Compared with the last molecule, the EC50 is about 1300-fold higher.

As for `CCC(CC)Oc1nc(N)c2ncc(Cc3cnc(N4CCN(C(=O)CNC)CC4)c(C)c3)n2n1` [Compound B201, 1-(4-(5-((4-amino-2-(pentan-3-yloxy)imidazo[2,1-f][1,2,4]triazin-7-yl)methyl)-3-methylpyridin-2-yl)piperazin-1-yl)-2-(methylamino)ethan-1-one], it took 28 nM to reach a half-maximal effect (EC50). This EC50 is about 180-fold lower than that of the molecule before.

In turn, `CCCCOc1nc(N)c2ncc(Cc3cnc(N4CCC(NC(=O)CN(C)C)CC4)c(C)c3)n2n1` [Compound B142, N-(1-(5-((4-amino-2-butoxyimidazo[2,1-f][1,2,4]triazin-7-yl)methyl)-3-methylpyridin-2-yl)piperidin-4-yl)-2-(dimethylamino)acetamidea] registered an EC50 of 45 nM.

Molecule `Cc1cc(Cc2cnc3c(N)nc(OCC4CCCCC4)nn23)cnc1N1CCNCC1` [Compound B192, 2-(cyclohexylmethoxy)-7-((5-methyl-6-(piperazin-1-yl)pyridin-3-yl)methyl)imidazo[2,1-f][1,2,4]triazin-4-amine] gave an EC50 of 2680 nM. Molecule `CC[C@H](C)Oc1nc(N)c2ncc(Cc3cnc(N4CCN(C(=O)CNC)CC4)c(C)c3)n2n1` [Compound B146, (S)-1-(4-(5-((4-amino-2-(sec-butoxy)imidazo[2,1-f][1,2,4]triazin-7-yl)methyl)-3-methylpyridin-2-yl)piperazin-1-yl)-2-(methylamino)ethan-1-one] returned an EC50 of 10 nM.

Regarding `CC[C@H](C)Oc1nc(N)c2ncc(Cc3cnc(N4CCN(C(=O)CN(C)C)CC4)c(C)c3)n2n1` [Compound B145, (S)-1-(4-(5-((4-amino-2-(sec-butoxy)imidazo[2,1-f] [1,2,4]triazin-7-yl)methyl)-3-methylpyridin-2-yl)piperazin-1-yl)-2-(dimethylamino)ethan-1-one], the EC50 was determined as 8 nM. This EC50 and that of the molecule before are within 1.5-fold of each other.

Turning to `CCCCOc1nc(N)c2ncc(Cc3cnc(N4CCN(CC(=O)N(C)C)CC4)c(C)c3)n2n1` [Compound B72, 2-(4-(5-((4-amino-2-butoxyimidazo[2,1-f][1,2,4]triazin-7-yl)methyl)-3-methylpyridin-2-yl)piperazin-1-yl)-N,N-dimethylacetamide], the midpoint of the response, the EC50, lay at 493 nM.

In turn, `CCCCOc1nc(N)c2ncc(Cc3cnc(N4CCN(C(=O)CCCN(C)C)CC4)c(C)c3)n2n1` [Compound B49, 1-(4-(5-((4-amino-2-butoxyimidazo[2,1-f][1,2,4]triazin-7-yl)methyl)-3-methylpyridin-2-yl)piperazin-1-yl)-4-(dimethylamino)butan-1-one] showed an EC50 of 124 nM. In turn, `CCCCOc1nc(N)c2ncc(Cc3cnc(N4C[C@@H]5C[C@H]4CN5)c(C)c3)n2n1` [Compound B168, 7-((6-((1S,4S)-2,5-diazabicyclo[2.2.1]heptan-2-yl)-5-methylpyridin-3-yl)methyl)-2-butoxyimidazo[2,1-f][1,2,4]triazin-4-amine] came in with an EC50 of 124 nM.

As to `CCCCOc1nc(N)c2ncc(Cc3cnc(N4CCNCC4)c(C(F)(F)F)c3)n2n1` [Compound B10, 2-butoxy-7-((6-(piperazin-1-yl)-5-(trifluoromethyl)pyridin-3-yl)methyl)imidazo[2,1-f][1,2,4]triazin-4-amine], the EC50 is 417 nM.

With `CCC(CC)Nc1nc(N)c2ncc(Cc3cnc(N4CCC(N(C)C)CC4)c(C)c3)n2n1` [Compound B209, 7-((6-(4-(dimethylamino)piperidin-1-yl)-5-methylpyridin-3-yl)methyl)-N2-(pentan-3-yl)imidazo[2,1-f][1,2,4]triazine-2,4-diamine], it took 9.2 nM to reach a half-maximal effect (EC50). For `CCCC(Oc1nc(N)c2ncc(Cc3cnc(N4CCNCC4)c(C)c3)n2n1)C1CC1` (stereo not shown) [Compound B202, 2-(1-cyclopropylbutoxy)-7-((5-methyl-6-(piperazin-1-yl)pyridin-3-yl)methyl)imidazo[2,1-f][1,2,4]triazin-4-amine], a half-maximal response (EC50) required 15 nM. Take `CCC(CC)Nc1nc(N)c2ncc(Cc3cnc(N4CCC(CN(C)C)CC4)c(C)c3)n2n1` [Compound B208, 7-((6-(4-((dimethylamino)methyl)piperidin-1-yl)-5-methylpyridin-3-yl)methyl)-N2-(pentan-3-yl)imidazo[2,1-f][1,2,4]triazine-2,4-diamine]: the concentration giving a half-maximal response (EC50) is 7.4 nM. `CCCC(C)Nc1nc(N)c2ncc(Cc3cnc(N4CCC(CNC)CC4)c(C)c3)n2n1` (stereo not shown) [Compound B204, 7-((5-methyl-6-(4-((methylamino)methyl)piperidin-1-yl)pyridin-3-yl)methyl)-N2-(pentan-2-yl)imidazo[2,1-f][1,2,4]triazine-2,4-diamine] came in with a half-maximal effective concentration (EC50) of 7.3 nM. Consider `CCC[C@@H](C)Oc1nc(N)c2ncc(Cc3cnc(N4CCN(C(=O)CNC)CC4)c(C)c3)n2n1` [Compound B160, (R)-1-(4-(5-((4-amino-2-(pentan-2-yloxy)imidazo[2,1-f][1,2,4]triazin-7-yl)methyl)-3-methylpyridin-2-yl)piperazin-1-yl)-2-(methylamino)ethan-1-one], for which the response was half-maximal at 25 nM (EC50). “1-((4-amino-7-((5-methyl-6-(piperazin-1-yl)pyridin-3-yl)methyl)imidazo[2,1-f][1,2,4]triazin-2-yl)oxy)hexan-3-ol [Compound B157]” yielded an EC50 of 667 nM. Compared with the last molecule, the EC50 is about 27-fold higher. Regarding `CCCC(CCO)Oc1nc(N)c2ncc(Cc3cnc(N4CCC(CNC)CC4)c(C)c3)n2n1` (stereo not shown) [Compound B229, 3-((4-amino-7-((5-methyl-6-(4-((methylamino)methyl)piperidin-1-yl)pyridin-3-yl)methyl)imidazo[2,1-f][1,2,4]triazin-2-yl)oxy)hexan-1-ol], a half-maximal effect (EC50) was put at 14 nM. The molecule `CCCCOc1nc(N)c2ncc(Cc3cc(C)c(C4CCNCC4)cn3)n2n1` [Compound B47, 2-butoxy-7-((4-methyl-5-(piperidin-4-yl)pyridin-2-yl)methyl)imidazo[2,1-f][1,2,4]triazin-4-amine] had a concentration for a half-maximal effect (EC50) of 462 nM. For `CCCC(C)Nc1nc(N)c2ncc(Cc3cnc(N4CCC(CN(C)C)CC4)c(C)c3)n2n1` (stereo not shown) [Compound B137, 7-((6-(4-((dimethylamino)methyl)piperidin-1-yl)-5-methylpyridin-3-yl)methyl)-N2-(pentan-2-yl)imidazo[2,1-f][1,2,4]triazine-2,4-diamine] the value was 4.1 nM.
